Laboratory results from US20200247800A1, “SUBSTITUTED BICYCLIC HETEROCYCLIC COMPOUNDS AS NADPH OXIDASE INHIBITORS” (Glenmark Pharmaceuticals S.A., priority 2017, published 2020).

Molecular target: T1, human NOX4 (Homo sapiens, UniProt Q9NPH5)
T1 construct: expressed in transfected cells; membrane fraction used
T1 sequence (Q9NPH5 1-578): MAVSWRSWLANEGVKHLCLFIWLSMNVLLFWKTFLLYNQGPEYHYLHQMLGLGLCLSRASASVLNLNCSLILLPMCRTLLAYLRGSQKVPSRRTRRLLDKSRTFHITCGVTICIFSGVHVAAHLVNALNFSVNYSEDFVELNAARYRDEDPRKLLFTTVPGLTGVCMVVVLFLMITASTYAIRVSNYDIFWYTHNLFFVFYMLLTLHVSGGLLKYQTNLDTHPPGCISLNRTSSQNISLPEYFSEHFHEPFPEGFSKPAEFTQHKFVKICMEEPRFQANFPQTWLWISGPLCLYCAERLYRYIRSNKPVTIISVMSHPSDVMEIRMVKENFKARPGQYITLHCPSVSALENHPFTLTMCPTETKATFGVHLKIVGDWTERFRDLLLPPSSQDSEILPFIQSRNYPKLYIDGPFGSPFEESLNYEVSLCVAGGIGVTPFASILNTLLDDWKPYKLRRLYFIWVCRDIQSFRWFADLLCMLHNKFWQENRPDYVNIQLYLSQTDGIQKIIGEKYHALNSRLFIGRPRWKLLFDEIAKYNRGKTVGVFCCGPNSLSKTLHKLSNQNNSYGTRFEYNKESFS
T1 sequence (P13498 1-195 partner): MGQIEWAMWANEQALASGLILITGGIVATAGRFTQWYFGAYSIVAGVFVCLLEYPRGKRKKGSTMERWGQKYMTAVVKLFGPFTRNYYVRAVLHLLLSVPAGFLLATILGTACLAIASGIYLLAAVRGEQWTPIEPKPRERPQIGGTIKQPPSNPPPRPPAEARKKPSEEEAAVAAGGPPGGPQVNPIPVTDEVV
Test: Cell free membrane based in vitro NOX4 assay: H2O2 production by membranes expressing human NOX4, measured with Amplex Red
Type: biochemical
Details: for inhibition at 1 µM: 1.0 μM compound, read-out: Percentage inhibition at 1.0 μM; for inhibition at 10 µM: 10.0 μM compound, read-out: Percentage inhibition at 10.0 μM; for IC50: class symbols
Experimental: The inhibition of NOX4 activity was measured as inhibition of formation of reactive oxygen species (ROS) from oxygen in cell free assays. […] A cell free membrane based in vitro assay was developed by preparing membranes from cells stably overexpressing human NOX4. hNOX4/HEK stable cell line was generated in-house for this purpose. Membranes from stably transfected cells overexpressing human NOX4 were prepared by homogenizing the cells in buffer (20 mM HEPES, 1 mM EGTA, 0.5 mM DTT, 0.5% protease inhibitor cocktail, 1 mM PMSF, pH 7.6), followed by centrifugation at 160000 g for 30 min. Membrane fraction (pellet) was resuspended in storage buffer (homogenization buffer with 10% glycerol and 100 mM NaCl) and stored at −80° C. Protein concentration was determined by Bradford reagent. H202 production by membranes expressing human NOX4 was measured using Amplex Red (Invitrogen) by following a slightly modified version of the manufacturer's instruction manual. Briefly, membranes were incubated in assay buffer (25 mM HEPES, 0.12 M NaCl, 3 mM KCl, 1 mM MgCl2, pH 7.4) with Horse Radish Peroxidase (HRP) and Amplex Red. Reaction was started by addition of […] to the membrane mix. Antagonism of NOX4 inhibitors was measured by incubating the membrane with increasing concentrations of the inhibitors for 20 min on a plate shaker prior to addition of NADPH. H2O2 levels were measured for 10 min in a BMG Fluostar microplate reader with excitation and emission wavelengths of 544 nm and 590 nm respectively. Concentration response curves were plotted as a % of maximal response obtained in the absence of the inhibitor. IC50 value was calculated from concentration response curve by nonlinear regression analysis using GraphPad PRISM software.

For `O=c1c(O)c(-c2c(F)cccc2F)[nH]c2[nH]nc(C(F)(F)F)c12` [Example 98, 6-(2,6-Difluorophenyl)-5-hydroxy-3-(trifluoromethyl)-1H-pyrazolo[3,4-b]pyridin-4(7H)-one], the inhibition at 1 µM was 86.4%, the inhibition at 10 µM was 93.4% and the IC50 was 0.05 to 0.1 µM.

`CCc1nn(CCS(C)(=O)=O)c2[nH]c(-c3c(F)cccc3F)c(O)c(=O)c12` [Example 218, 6-(2,6-Difluorophenyl)-3-ethyl-5-hydroxy-1-(2-(methylsulfonyl)ethyl)-1H-pyrazolo[3,4-b]pyridin-4(7H)-one] was tested, and the inhibition at 1 µM was 85.5%, the inhibition at 10 µM was 90.1% and the IC50 was 0.05 to 0.1 µM.

`CCn1nc(C)c2c(=O)c(OC)c(-c3c(F)cccc3F)[nH]c21` [Example 234] was tested, and the inhibition at 1 µM was 25.8% and the inhibition at 10 µM was 70.2%.

`CCc1nn(CCN2CCOCC2)c2[nH]c(-c3c(F)cccc3F)c(O)c(=O)c12` [Example 156, 6-(2,6-difluorophenyl)-3-ethyl-5-hydroxy-1-(2-morpholinoethyl)-1H-pyrazolo[3,4-b]pyridin-4(7H)-one] gave an inhibition at 1 µM of 97.4%, an inhibition at 10 µM of 100% and an IC50 of less than 0.05 µM.

In the case of `Cn1ncc2c(=O)c(O)c(-c3ccc(Cl)cc3Cl)[nH]c21` [Example 5, 6-(2,4-Dichlorophenyl)-5-hydroxy-1-methyl-1,7-dihydro-4H-pyrazolo[3,4-b]pyridin-4-one], the inhibition at 1 µM is reported as 74%, the inhibition at 10 µM is reported as 84.2% and the IC50 is reported as greater than 0.15 µM.

`COc1ccc(-c2[nH]c3c(c(C)nn3C)c(=O)c2O)c(F)c1` [Example 19, 6-(2-Fluoro-4-methoxyphenyl)-5-hydroxy-1,3-dimethyl-1,7-dihydro-4H-pyrazolo[3,4-b]pyridin-4-one] gave an inhibition at 1 µM of 95.3%, an inhibition at 10 µM of 75.2% and an IC50 of 0.05 to 0.1 µM.

With `Cn1nc(C(F)(F)F)c2c(=O)c(O)c(-c3ccncc3)[nH]c21` [Example 55, 5-Hydroxy-1-methyl-6-(pyridin-4-yl)-3-(trifluoromethyl)-1,7-dihydro-4H-pyrazolo[3,4-b]pyridin-4-one] the inhibition at 1 µM was 83.8%, the inhibition at 10 µM was 94.2% and the IC50 was greater than 0.15 µM.

Work on `CCc1nn(CCC(C)C)c2[nH]c(-c3c(F)cccc3F)c(O)c(=O)c12` [Example 180, 6-(2,6-Difluorophenyl)-3-ethyl-5-hydroxy-1-isopentyl-1H-pyrazolo[3,4-b]pyridin-4(7H)-one] yielded an inhibition at 1 µM of 100%, an inhibition at 10 µM of 100% and an IC50 of less than 0.05 µM.

With `COc1ccc(-c2[nH]c3c(c(C)nn3-c3ccc(F)cc3)c(=O)c2O)c(F)c1` [Example 38, 6-(2-Fluoro-4-methoxyphenyl)-1-(4-fluorophenyl)-5-hydroxy-3-methyl-1,7-dihydro-4H-pyrazolo[3,4-b]pyridin-4-one] the inhibition at 1 µM was 87.5%, the inhibition at 10 µM was 86.1% and the IC50 was 0.1 to 0.15 µM.

In the case of `Cc1nn(-c2ccc(F)cc2)c2oc(-c3ccccc3Cl)c(O)c(=O)c12` [Example 231, 6-(2-Chlorophenyl)-1-(4-fluorophenyl)-5-hydroxy-3-methylpyrano[2,3-c]pyrazol-4(1H)-one], the inhibition at 1 µM is reported as 12.5% and the inhibition at 10 µM is reported as 9.39%.

`Cc1nn(C)c2[nH]c(-c3ccc(Cl)c(C(F)(F)F)c3)c(O)c(=O)c12` [Example 24, 6-[3-Chloro-3-(trifluoromethyl)phenyl]-5-hydroxy-1,3-dimethyl-1,7-dihydro-4H-pyrazolo[3,4-b]pyridin-4-one] gave an inhibition at 1 µM of 88.9% and an IC50 greater than 0.15 µM.

Work on `COc1ccc(Cl)c(-c2[nH]c3c(c(C(F)(F)F)nn3C)c(=O)c2O)c1` [Example 49, 6-(2-Chloro-5-methoxyphenyl)-5-hydroxy-1-methyl-3-(trifluoromethyl)-1,7-dihydro-4H-pyrazolo[3,4-b]pyridin-4-one] yielded an inhibition at 1 µM of 100%, an inhibition at 10 µM of 100% and an IC50 greater than 0.15 µM.

`Cn1nc(CO)c2c(=O)c(O)c(-c3ccccc3Cl)[nH]c21` [Example 198, 6-(2-Chlorophenyl)-5-hydroxy-3-(hydroxymethyl)-1-methyl-1H-pyrazolo[3,4-b]pyridin-4(7H)-one] gave an inhibition at 1 µM of 87.7%, an inhibition at 10 µM of 86.7% and an IC50 of 0.05 to 0.1 µM.

`CC(C)N1CCN(Cc2nn(C)c3[nH]c(-c4c(F)cccc4F)c(O)c(=O)c23)CC1` [Example 192, 6-(2,6-Difluorophenyl)-5-hydroxy-3-((4-isopropylpiperazin-1-yl)methyl)-1-methyl-1H-pyraazolo[3,4-b]pyridin-4(7H)-one] was tested, and the inhibition at 1 µM was 90.6%, the inhibition at 10 µM was 95.3% and the IC50 was 0.05 to 0.1 µM.

For `Cc1nn(-c2ccc(F)cc2)c2[nH]c(-c3c(F)cccc3F)c(O)c(=O)c12` [Example 32, 6-(2,6-Difluorophenyl)-1-(4-fluorophenyl)-5-hydroxy-3-methyl-1,7-dihydro-4H-pyrazolo[3,4-b]pyridin-4-one], the inhibition at 1 µM was 100%, the inhibition at 10 µM was 100% and the IC50 was less than 0.05 µM.

`CC(C)N1CCN(Cc2nn(C)c3[nH]c(-c4c(F)cccc4F)c(O)c(=O)c23)C[C@H]1C` [Example 223, (R)-6-(2,6-Difluorophenyl)-5-hydroxy-3-((4-isopropyl-3-methylpiperazin-1-yl)methyl)-1-methyl-1H-pyrazolo[3,4-b]pyridin-4(7H)-one] was tested, and the inhibition at 1 µM was 89.7%, the inhibition at 10 µM was 96.6% and the IC50 was 0.1 to 0.15 µM.

With `Cn1nc(Cc2ccccc2Cl)c2c(=O)c(O)c(-c3ccccc3Cl)[nH]c21` [Example 145, 3-(2-Chlorobenzyl)-6-(2-chlorophenyl)-5-hydroxy-1-methyl-1H-pyrazolo[3,4-b]pyridin-4(7H)-one] the inhibition at 1 µM was 90%, the inhibition at 10 µM was 93.2% and the IC50 was greater than 0.15 µM.

`CCn1nc(C(F)(F)F)c2c(=O)c(O)c(-c3ccccc3Cl)[nH]c21` [Example 109, 6-(2-Chlorophenyl)-1-ethyl-5-hydroxy-3-(trifluoromethyl)-1H-pyrazolo[3,4-b]pyridin-4(7H)-one] gave an inhibition at 1 µM of 60.5%, an inhibition at 10 µM of 82.1% and an IC50 greater than 0.15 µM.

For `CCn1nc(C)c2c(=O)c(O)c(-c3c(F)cccc3Cl)[nH]c21` [Example 123, 6-(2-Chloro-6-fluorophenyl)-1-ethyl-5-hydroxy-3-methyl-1,7-dihydro-4H-pyrazolo[3,4-b]pyridin-4-one], the inhibition at 1 µM was 75.5%, the inhibition at 10 µM was 76.2% and the IC50 was greater than 0.15 µM.

`COc1ccc(-c2[nH]c3c(c(C(F)(F)F)nn3C)c(=O)c2O)c(OC)c1` [Example 51, 6-(2,4-Dimethoxyphenyl)-5-hydroxy-1-methyl-3-(trifluoromethyl)-1,7-dihydro-4H-pyrazolo[3,4-b]pyridin-4-one] was tested, and the inhibition at 1 µM was 74.4%, the inhibition at 10 µM was 86.5% and the IC50 was greater than 0.15 µM.

`Cc1nn(-c2ccccn2)c2[nH]c(-c3c(F)cccc3F)c(O)c(=O)c12` [Example 36, 6-(2,6-Difluorophenyl)-5-hydroxy-3-methyl-1-(pyridin-2-yl)-1,7-dihydro-4H-pyrazolo[3,4-b]pyridin-4-one] gave an inhibition at 1 µM of 84.2%, an inhibition at 10 µM of 100% and an IC50 greater than 0.15 µM.

`Cn1ncc2c(=O)c(O)c(-c3cccc(Cl)c3)[nH]c21` [Example 4, 6-(3-Chlorophenyl)-5-hydroxy-1-methyl-1,7-dihydro-4H-pyrazolo[3,4-b]pyridin-4-one] was tested, and the inhibition at 1 µM was 94.5%, the inhibition at 10 µM was 98.5% and the IC50 was greater than 0.15 µM.

In the case of `CCn1nc(C)c2c(=O)c(O)c(-c3cc(CNC(=O)C(C)(C)C)ccc3Cl)[nH]c21` [Example 129, N-(4-Chloro-3-(1-ethyl-5-hydroxy-3-methyl-4-oxo-4,7-dihydro-1H-pyrazolo[3,4-b]pyridin-6-yl)benzyl)pivalamide], the inhibition at 1 µM is reported as 85.1%, the inhibition at 10 µM is reported as 74.4% and the IC50 is reported as 0.05 to 0.1 µM.
